Measurements published in the NIST ThermoML archive (doi:10.1021/acs.jced.7b00201).

Assay: xn = mol fraction of the nth substance listed
Conditions: 100 kPa, Liquid; for mass density: Vibrating tube method; for viscosity: Falling or rolling sphere viscometry

CCCCC1CCCCC1 [butylcyclohexane] + CCCCCCCCCCCC
Conditions	mass density [kg/m3]	viscosity [mPa·s]
318.15 K, x2 = 0	780.52	–
318.15 K, x2 = 0.1017	774.07	–
318.15 K, x2 = 0.1996	768.22	–
318.15 K, x2 = 0.2951	762.85	–
318.15 K, x2 = 0.4221	756.14	–
318.15 K, x2 = 0.5126	751.63	–
318.15 K, x2 = 0.6256	746.29	–
318.15 K, x2 = 0.7002	742.93	–
318.15 K, x2 = 0.7989	738.69	–
318.15 K, x2 = 0.9012	734.5	–
323.15 K, x2 = 0	776.74	0.844
323.15 K, x2 = 0.1017	770.3	0.851
323.15 K, x2 = 0.1996	764.47	0.858
323.15 K, x2 = 0.2951	759.12	0.864
323.15 K, x2 = 0.4221	752.42	0.874
323.15 K, x2 = 0.5126	747.93	0.881
323.15 K, x2 = 0.6256	742.6	0.89
323.15 K, x2 = 0.7002	739.25	0.896
323.15 K, x2 = 0.7989	735.02	0.905
323.15 K, x2 = 0.9012	730.84	0.915
328.15 K, x2 = 0	772.93	0.794
328.15 K, x2 = 0.1017	766.52	0.8
328.15 K, x2 = 0.1996	760.71	0.806
328.15 K, x2 = 0.2951	755.37	0.812
328.15 K, x2 = 0.4221	748.7	0.821
328.15 K, x2 = 0.5126	744.22	0.827
328.15 K, x2 = 0.6256	738.9	0.834
328.15 K, x2 = 0.7002	735.56	0.84
328.15 K, x2 = 0.7989	731.33	0.848
328.15 K, x2 = 0.9012	727.16	0.858
333.15 K, x2 = 0	769.13	0.749
333.15 K, x2 = 0.1017	762.73	0.754
333.15 K, x2 = 0.1996	756.94	0.759
333.15 K, x2 = 0.2951	751.62	0.763
333.15 K, x2 = 0.4221	744.96	0.771
333.15 K, x2 = 0.5126	740.49	0.775
333.15 K, x2 = 0.6256	735.19	0.781
333.15 K, x2 = 0.7002	731.86	0.787
333.15 K, x2 = 0.7989	727.64	0.794
333.15 K, x2 = 0.9012	723.48	0.803
338.15 K, x2 = 0	765.3	0.708
338.15 K, x2 = 0.1017	758.93	0.712
338.15 K, x2 = 0.1996	753.16	0.716
338.15 K, x2 = 0.2951	747.85	0.721
338.15 K, x2 = 0.4221	741.21	0.728
338.15 K, x2 = 0.5126	736.75	0.733
338.15 K, x2 = 0.6256	731.47	0.738
338.15 K, x2 = 0.7002	728.14	0.742
338.15 K, x2 = 0.7989	723.94	0.749
338.15 K, x2 = 0.9012	719.78	0.756
343.15 K, x2 = 0	761.47	0.67
343.15 K, x2 = 0.1017	755.12	0.674
343.15 K, x2 = 0.1996	749.37	0.678
343.15 K, x2 = 0.2951	744.07	0.682
343.15 K, x2 = 0.4221	737.45	0.687
343.15 K, x2 = 0.5126	733	0.691
343.15 K, x2 = 0.6256	727.73	0.696
343.15 K, x2 = 0.7002	724.41	0.701
343.15 K, x2 = 0.7989	720.22	0.708
343.15 K, x2 = 0.9012	716.08	0.715
